Experimental data published in patent US9492437B2, “Otamixaban for treatment of elderly and renal impaired non-ST elevation myocardial infarction patients” (SANOFI, priority 2009, dated 2016).
Where two headings read alike, the source gives them in different places.

Key:
[1] = subgroup pharmacokinetic analysis (concentration of otamixaban); assay type: in vivo, human; conditions: dose 4 (0.140 mg/Kg/h)
[2] = tested on: patients with Unstable angina/Non ST segment Elevation Myocardial infarction; assay: randomized, double-blind triple-dummy trial, efficacy (endpoint of the study: all-cause death and new myocardial infarction); assay type: in vivo, human
Description: The following results are based on a randomized, double-blind triple-dummy trial to compare otamixaban to Unfractionated Heparin+eptifibatide, in patients with Unstable angina/Non ST segment Elevation Myocardial infarction scheduled to undergo an early invasive strategy.
Patient with non STE-segment elevation Acute Coronary Syndrome with the following symptoms: […]
UFH: 60 IU/Kg as IV bolus ([…]) followed by an IV infusion of 12 U/Kg/h (max 1000 IU/h) to maintain a PTT at 1.5 to 2.0 times control and at the time of the PCI additional boluses needed if the ACT is not in the range of 200-250 seconds. NB: In order for the study to be blinded, all aPTTs and ACTs performed in order to adjust Drug B (UFH/placebo) dosing will be performed using an encrypted Hemochron Signature Elite machine (or as a back-up, a local device with a third-party unblinded healthcare professional).
Eptifibatide: a single bolus of 180 mcg/kg followed by an infusion of 2 mcg/kg/min. In patients with CrCl<50 mL/min the infusion rate will be decreased to 1 mcg/kg/min.
Primary endpoint: Adjudicated composite of all-cause death and new myocardial infarction (MI) within 7 days following randomization
The events will be adjudicated by a blinded independent adjudication committee. Since the goal of treating acute ACS without persistent ST segment elevation is to prevent associated morbidity and mortality, death and myocardial infarction are considered to be the clinically most meaningful endpoints in therapeutic studies, whereas recurrent ischemia or refractory angina is of more uncertain clinical relevance (EMEA/CPCP/EWP/570/98; February 2008).
The primary endpoint has been defined as the double clinical efficacy endpoint (all cause death and Myocardial Infarction based on centrally adjudicated data) that will be assessed at Day 7. Further estimation of this endpoint will be done at Day 30, Day 90 and Day 180 (end of the follow up) to check persistence of effect as recommended by the EMEA guideline (EMEA/CPCP/EWP/570/98; February 2008).
Myocardial Infarction is considered to be a hard component of a combined efficacy endpoint for confirmatory clinical trials. The definition of Myocardial Infarction will be based on ACC/AHA, ESC and WHF consensus (J Am Coll Cardiol, 2007; 50:2173-2195; Eur Heart J, 2007, 28: 2525-2538): […]

[3] = tested on: acute coronary syndrome; conditions: cited from earlier work
[4] = biological target: free factor Xa (Homo sapiens, UniProt P00742); conditions: cited from earlier work
[5] = tested on: thrombosis; conditions: canine; cited from earlier work
[6] = tested on: thrombosis; conditions: porcine; cited from earlier work
[7] = tested on: prothrombin fragments 1+2; conditions: highest dose regimen; cited from earlier work
[8] = tested on: thrombosis; conditions: rodent; cited from earlier work
[9] = biological target: T1, factor Xa (Homo sapiens, UniProt P00742); conditions: patients with stable coronary artery disease taking usual comedication, some with mild renal impairment; cited from earlier work
T1 construct: host or cells: patients (endogenous enzyme)

[10] = age 65 to 75 years, Ota. infusion 0.035 mg/Kg/h
[11] = age 65 to 75 years, Ota. infusion 0.070 mg/Kg/h
[12] = age 65 to 75 years, Ota. infusion 0.105 mg/Kg/h
[13] = age 65 to 75 years, Ota. infusion 0.140 mg/Kg/h
[14] = age 65 to 75 years, Ota. infusion 0.175 mg/Kg/h
[15] = age <65 years, Ota. infusion 0.035 mg/Kg/h
[16] = age <65 years, Ota. infusion 0.070 mg/Kg/h
[17] = age <65 years, Ota. infusion 0.105 mg/Kg/h
[18] = age <65 years, Ota. infusion 0.140 mg/Kg/h
[19] = age <65 years, Ota. infusion 0.175 mg/Kg/h
[20] = age older than 75 years, Ota. infusion 0.035 mg/Kg/h
[21] = age older than 75 years, Ota. infusion 0.070 mg/Kg/h
[22] = age older than 75 years, Ota. infusion 0.105 mg/Kg/h
[23] = age older than 75 years, Ota. infusion 0.140 mg/Kg/h
[24] = age older than 75 years, Ota. infusion 0.175 mg/Kg/h
[25] = creatinine clearance 30 to 50 ml/min, Ota. infusion 0.070 mg/Kg/h
[26] = creatinine clearance 30 to 50 ml/min, Ota. infusion 0.105 mg/Kg/h
[27] = creatinine clearance 30 to 50 ml/min, Ota. infusion 0.140 mg/Kg/h
[28] = creatinine clearance 30 to 50 ml/min, Ota. infusion 0.175 mg/Kg/h
[29] = creatinine clearance 50 to 80 ml/min, Ota. infusion 0.035 mg/Kg/h
[30] = creatinine clearance 50 to 80 ml/min, Ota. infusion 0.070 mg/Kg/h
[31] = creatinine clearance 50 to 80 ml/min, Ota. infusion 0.105 mg/Kg/h
[32] = creatinine clearance 50 to 80 ml/min, Ota. infusion 0.140 mg/Kg/h
[33] = creatinine clearance 50 to 80 ml/min, Ota. infusion 0.175 mg/Kg/h
[34] = creatinine clearance <30 ml/min, Ota. infusion 0.140 mg/Kg/h
[35] = creatinine clearance more than 80 ml/min, Ota. infusion 0.035 mg/Kg/h
[36] = creatinine clearance more than 80 ml/min, Ota. infusion 0.070 mg/Kg/h
[37] = creatinine clearance more than 80 ml/min, Ota. infusion 0.105 mg/Kg/h
[38] = creatinine clearance more than 80 ml/min, Ota. infusion 0.140 mg/Kg/h
[39] = creatinine clearance more than 80 ml/min, Ota. infusion 0.175 mg/Kg/h
[40] = dose arms from 0.105 to 0.175 mg/Kg/h (dose arm 3 to 5)

T1 sequence (P00742 235-488 limits assumed): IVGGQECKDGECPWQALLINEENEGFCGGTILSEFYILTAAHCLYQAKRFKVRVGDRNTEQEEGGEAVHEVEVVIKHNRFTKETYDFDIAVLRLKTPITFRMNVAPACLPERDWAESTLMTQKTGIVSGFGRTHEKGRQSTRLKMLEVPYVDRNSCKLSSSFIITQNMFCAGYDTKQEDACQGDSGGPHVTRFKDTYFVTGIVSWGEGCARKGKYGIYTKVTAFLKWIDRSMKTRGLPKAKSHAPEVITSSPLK
T1 sequence (P00742 41-179 partner limits assumed): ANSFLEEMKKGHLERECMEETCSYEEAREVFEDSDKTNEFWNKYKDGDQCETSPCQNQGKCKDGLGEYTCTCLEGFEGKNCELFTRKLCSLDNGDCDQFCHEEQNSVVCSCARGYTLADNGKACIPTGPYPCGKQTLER
Chain of free factor Xa (P00742 235-488 limits assumed): as the sequence (P00742 235-488 limits assumed) above
Chain of free factor Xa (P00742 41-179 limits assumed): as the sequence (P00742 41-179 partner limits assumed) above

In the case of `COC(=O)C(Cc1cccc(C(=N)N)c1)[C@@H](C)NC(=O)c1ccc(-c2cc[n+]([O-])cc2)cc1` (mixture of isomers) [Otamixaban, (2R,3R)-2-(3-Carbamimidoyl-benzyl)-3-[4-(1-oxy-pyridin-4-yl)benzoylamino]-butyric acid methyl ester], the “concentration of otamixaban in patients with renal impairment and in elderly patients” value [1] is reported as “higher concentration”, the “patients who showed the endpoint of the study / patients in the group” value [2, 10] is reported as 2/33 and the “patients with endpoint in comparison with the whole number of patients in the group” value (shortened to “patients with endpoint in comparison”) [2, 10] is reported as “(6.1%)”. For the same compound, the “patients who showed the endpoint of the study / patients in the group” value [2, 11] was 11/186, the “patients with endpoint in comparison” value [2, 11] was “(5.9%)” and the “patients who showed the endpoint of the study / patients in the group” value [2, 12] was 11/170. For the same compound, the “patients with endpoint in comparison” value [2, 12] was “(6.5%)”, the “patients who showed the endpoint of the study / patients in the group” value [2, 13] was 9/182 and the “patients with endpoint in comparison” value [2, 13] was “(4.9%)”. For the same compound, the “patients who showed the endpoint of the study / patients in the group” value [2, 14] was 7/164, the “patients with endpoint in comparison” value [2, 14] was “(4.3%)” and the “patients who showed the endpoint of the study / patients in the group” value [2, 15] was 5/74. The “patients with endpoint in comparison” value [2, 15] was “(6.8%)”, the “patients who showed the endpoint of the study / patients in the group” value [2, 16] was 16/394 and the “patients with endpoint in comparison” value [2, 16] was “(4.1%)”. For the same compound, the “patients who showed the endpoint of the study / patients in the group” value [2, 17] was 8/394, the “patients with endpoint in comparison” value [2, 17] was “(2.0%)” and the “patients who showed the endpoint of the study / patients in the group” value [2, 18] was 9/383. For the same compound, the “patients with endpoint in comparison” value [2, 18] was “(2.3%)”, the “patients who showed the endpoint of the study / patients in the group” value [2, 19] was 16/401 and the “patients with endpoint in comparison” value [2, 19] was “(4.0%)”. The “patients who showed the endpoint of the study / patients in the group” value [2, 20] was 2/18, the “patients with endpoint in comparison” value [2, 20] was “(11.1%)” and the “patients who showed the endpoint of the study / patients in the group” value [2, 21] was 4/96. The “patients with endpoint in comparison” value [2, 21] was “(4.2%)”, the “patients who showed the endpoint of the study / patients in the group” value [2, 22] was 6/98 and the “patients with endpoint in comparison” value [2, 22] was “(6.1%)”. The “patients who showed the endpoint of the study / patients in the group” value [2, 23] was 6/93, the “patients with endpoint in comparison” value [2, 23] was “(6.5%)” and the “patients who showed the endpoint of the study / patients in the group” value [2, 24] was 6/106. For the same compound, the “patients with endpoint in comparison” value [2, 24] was “(5.7%)”, the “patients who showed the endpoint of the study / patients in the group” value ([2]; creatinine clearance 30 to 50 ml/min, Ota. infusion 0.035 mg/Kg/h) was 0/7 and the “patients who showed the endpoint of the study / patients in the group” value [2, 25] was 5/54. For the same compound, the “patients with endpoint in comparison” value [2, 25] was “(9.3%)”, the “patients who showed the endpoint of the study / patients in the group” value [2, 26] was 8/46 and the “patients with endpoint in comparison” value [2, 26] was “(17.4%)”. For the same compound, the “patients who showed the endpoint of the study / patients in the group” value [2, 27] was 4/46, the “patients with endpoint in comparison” value [2, 27] was “(8.7%)” and the “patients who showed the endpoint of the study / patients in the group” value [2, 28] was 3/48. The “patients with endpoint in comparison” value [2, 28] was “(6.3%)”, the “patients who showed the endpoint of the study / patients in the group” value [2, 29] was 5/29 and the “patients with endpoint in comparison” value [2, 29] was “(17.2%)”. For the same compound, the “patients who showed the endpoint of the study / patients in the group” value [2, 30] was 9/188, the “patients with endpoint in comparison” value [2, 30] was “(4.8%)” and the “patients who showed the endpoint of the study / patients in the group” value [2, 31] was 5/189. The “patients with endpoint in comparison” value [2, 31] was “(2.6%)”, the “patients who showed the endpoint of the study / patients in the group” value [2, 32] was 6/192 and the “patients with endpoint in comparison” value [2, 32] was “(3.1%)”. For the same compound, the “patients who showed the endpoint of the study / patients in the group” value [2, 33] was 8/178, the “patients with endpoint in comparison” value [2, 33] was “(4.5%)” and the “patients who showed the endpoint of the study / patients in the group” value ([2]; creatinine clearance <30 ml/min, Ota. infusion 0.035 mg/Kg/h) was 0/2. For the same compound, the “patients who showed the endpoint of the study / patients in the group” value ([2]; creatinine clearance <30 ml/min, Ota. infusion 0.070 mg/Kg/h) was 0/2, the “patients who showed the endpoint of the study / patients in the group” value ([2]; creatinine clearance <30 ml/min, Ota. infusion 0.105 mg/Kg/h) was 0/0 and the “patients who showed the endpoint of the study / patients in the group” value [2, 34] was 3/4. The “patients with endpoint in comparison” value [2, 34] was 75.0%, the “patients who showed the endpoint of the study / patients in the group” value ([2]; creatinine clearance <30 ml/min, Ota. infusion 0.175 mg/Kg/h) was 0/3 and the “patients who showed the endpoint of the study / patients in the group” value [2, 35] was 3/79. The “patients with endpoint in comparison” value [2, 35] was “(3.8%)”, the “patients who showed the endpoint of the study / patients in the group” value [2, 36] was 14/382 and the “patients with endpoint in comparison” value [2, 36] was “(3.7%)”. The “patients who showed the endpoint of the study / patients in the group” value [2, 37] was 10/378, the “patients with endpoint in comparison” value [2, 37] was “(2.6%)” and the “patients who showed the endpoint of the study / patients in the group” value [2, 38] was 9/372. For the same compound, the “patients with endpoint in comparison” value [2, 38] was “(2.4%)”, the “patients who showed the endpoint of the study / patients in the group” value [2, 39] was 14/392 and the “patients with endpoint in comparison” value [2, 39] was “(3.6%)”. For the same compound, the “subgroup analysis of clinical results (age, gender, creatinine clearance, body weight, management of the acute coronary syndrome)” value ([2]; demographic subgroups, baseline characteristics, invasive or medical management) was “consistency of the clinical results”, the “anticoagulation based on rates of bailout and thrombotic complications” value ([2]; dose arms 0.035 mg/Kg/h and 0.070 mg/Kg/h (dose arms 1 and 2)) was “inadequate anticoagulation” and the “effect on urgent revascularization or need for bailout” value [2, 40] was “no demonstrable effect”. For the same compound, the “rates of primary endpoint lower than UFH+Eptifibatide” value [2, 40] was 31-41%, the “efficacy, safety and tolerability in humans” value [3] was “efficacious, safe and well tolerated” and the “inhibition of free factor Xa” value [4] was “inhibited”. The “efficacy in models of thrombosis” value [5] was “highly efficacious”, the “efficacy in models of thrombosis” value [6] was “highly efficacious” and the “reduction of prothrombin fragments 1+2 versus unfractionated heparin” value [7] was “reduced prothrombin fragments 1+2 significantly more than unfractionated heparin”. For the same compound, the “efficacy in models of thrombosis” value [8] was “highly efficacious” and the “factor Xa inhibition in patients” value [9] was “dose-dependent, rapid direct factor Xa inhibition”.
